Earlier results as cited in patent publication US7405313B2, “Method for the synthesis of basic chromium carboxylates” (The Board of Trustees of the University of Alabama, priority 2006, dated 2008).

What was measured:
rats on regular diets = conditions: for effect on body mass, percentage lean or fat content, tissue size, or blood variables (fasting glucose, insulin, cholesterol, etc.): rats on regular diets
[1] = compared to other chromium-containing nutritional supplements
colorectal cancer = conditions: rat
[2] = system: healthy and model type 2 diabetic rats
[3] = healthy and model type 2 diabetic rats

Compound	effect on body mass, percentage lean or fat content, tissue size, or blood variables (fasting glucose, insulin, cholesterol, etc.) (rats on regular diets)	dissolution in water	absorption [1]	onset of colorectal cancer (colorectal cancer)	glycated hemoglobin ([2]; diabetes models)	blood plasma cholesterol and triglycerides levels [2, 3]	insulin sensitivity [2, 3]	acute toxic effects (rats on regular diets; rats, amounts up to 1500 μg/kg diet for up to 24 weeks)
[Cl][Cr]([Cl])[Cl] [chromium chloride]	no effect							
CCC(=O)[O-].CCC(=O)[O-].CCC(=O)[O-].CCC(=O)[O-].CCC(=O)[O-].CCC(=O)[O-].O.O.O.[Cr+3].[Cr+3].[Cr+3].[O-2] [Complex 1, [Cr3O(O2CCH2CH3)6(H2O)3]^+]		dissolves in water very rapidly	absorbed very rapidly and very efficiently	reduce the onset of colorectal cancer	reduce glycated hemoglobin	improve blood plasma cholesterol and triglycerides levels	increase insulin sensitivity	
chromium(III) tris(picolinate) [Cr(pic)3]	no effect							no acute toxic effects
